{"source": "patent US10022356B2", "about": "“Compounds for treatment of cancer” (UNIVERSITY OF TENNESSEE RESEARCH FOUNDATION, priority 2013, dated 2018)", "key": {"A375RF21 [1]": {"system": "A375RF21", "test": "Cell cycle analysis (flow cytometry) in A375RF21 cells", "assay_type": "cell-based, human", "details": "resistant A375RF21 cell line", "description": "(§1) Flow cytometry analysis was performed as described before (Wang Z, Chen J, Wang J, et al. “Novel tubulin polymerization inhibitors overcome multidrug resistance and reduce melanoma lung metastasis.” Pharm. Res. (2012) 29: 3040-3052). To determine cell cycle distributions in the G2 and M phases (FIG. 23), cells were harvested with trypsin, stained using antiphospho-histone H3-AlexaFluor® 488 antibody on ice for one hour in the dark, followed by stained using PI/RNase solution for 30 minutes at room temperature in the dark per the manufacturer's instructions (#FCCH025103, EMD Millipore Corporation, Ballerica, Mass.). Data were further processed and graphs were prepared using the Modfit 2.0 program (Verity Software House, Topsham, Me.)."}, "A375 [2]": {"system": "A375", "test": "Cell cycle analysis (flow cytometry) in parental A375 cells", "assay_type": "cell-based, human", "description": "as §1"}, "A375RF21 [3]": {"system": "A375RF21", "test": "Annexin V/propidium iodide apoptosis detection in A375RF21 cells", "assay_type": "cell-based, human", "details": "48 hours incubation"}, "A375RF21 xenograft": {"system": "A375RF21 xenograft", "test": "A375RF21 tumor xenograft in nude mice", "assay_type": "in vivo", "description": "Seven to eight week old male nude mice were purchased from Charles River Laboratories International, Inc. (Wilmington, Mass.). A375RF21 cells were suspended in ice-cold phenol red-free and FBS-free DMEM medium without FBS and mixed with high concentration Matrigel (BD Biosciences, San Joes, Calif.) at ratio of 1:1 right before use. 100 μL of this mixture containing 3×10^6 cells were injected subcutaneously (s.c.) to the left-side dorsal flank of each mouse. One week after the inoculation, the mice were randomized into four groups (n=7 for the initial low dose and n=5 for subsequent high dose drug combination) and the treatments started. […] Vehicle control group was i.p. injected with same volume (100 μL) of PEG300 at the same dosing frequency. At the end of the experiments, mice were euthanized and tumor tissue were isolated, weighted and then fixed in 10% buffered formalin phosphate solution.\nTumor volume and body weight of each mouse were evaluated three times a week."}, "LNCaP": {"system": "LNCaP", "test": "SRB cytotoxicity assay, LNCaP", "assay_type": "cell-based, human", "details": "Reversed aryl benzoyl imidazole (RABI), Tables 10A/10B; read-out: LNCaP (nM), inhibitory effects"}, "PPC-1": {"system": "PPC-1", "test": "SRB cytotoxicity assay, PPC-1", "assay_type": "cell-based, human", "details": "RABI, Tables 10A/10B; read-out: PPC1 (nM), inhibitory effects"}, "PC-3": {"system": "PC-3", "test": "SRB cytotoxicity assay, PC-3", "details": "read-out: PC3 (nM), inhibitory effects; RABI, Tables 10A/10B"}, "Du 145": {"system": "Du 145", "test": "SRB cytotoxicity assay, Du 145", "assay_type": "cell-based, human", "details": "RABI, Tables 10A/10B; read-out: DU145 (nM), inhibitory effects"}, "B16-F1 melanoma": {"system": "B16-F1 melanoma", "test": "B16-F1 melanoma tumors in C57/BL mice", "assay_type": "in vivo", "details": "60 mg/kg; after 13 days of treatment; C57BL/6 mice", "method": "C57BL/6 mice bearing B16-F1 melanoma allograft (n=5 per group). Each mouse received 0.5×10^6 cells by s.c. injection into the flank. 30 μL i.p. daily treatments were started when tumor size reached ˜100 mm^3. […] Control, vehicle solution only; points, means; bars, SD. DTIC, (5-(3,3,-dimethyl-1-triazenyl)-imidazole-4-carboxamide, dacarbazine.\nFemale C57/BL mice, age 4-6 weeks, were purchased from Harlan Laboratories (Harlan Laboratories Inc., Indianapolis, Ind.). The animal housing met the Association for Assessment and Accreditation and Laboratory Animal Care specifications. All of the procedures were conducted in accordance with guidelines of our Institutional Animal Care and Use Committee.\nThe cell suspension (100 μL) was injected subcutaneously in the right dorsal flank of each mouse. When tumor size reached about 100-150 mm^3, about 7 days after cell inoculation, all mice bearing tumors were divided into control and treatment groups based on tumor size (n=5 per group). Each group had similar average tumor size. Mice in control groups (negative control) were injected intraperitoneally with 50 μL vehicle solution only or DTIC at 60 mg/kg (positive control) once daily. Tumor volume was measured every 2 days with a traceable electronic digital caliper (Fisher Scientific, Inc., Pittsburgh, Pa.) and calculated using the formula a×b^2×0.5, where a and b represented the larger and smaller diameters, respectively. Tumor volume was expressed in cubic millimeters. Data were expressed as mean±SE for each group and plotted as a function of time. […] Animal activity and average body weight of each group were monitored during the entire experiment period to assess compound toxicity. At the end of treatment, all mice were euthanized by CO2 followed by cervical dislocation, and tumors were harvested for further studies."}, "[4]": {"system": "A375 human melanoma xenograft", "test": "A375 human melanoma xenograft in SHO nude mice", "assay_type": "in vivo", "details": "60 mg/kg; after 31 days of treatment", "description": "FIG. 19 depicts in vivo study of ABI compounds. […] C57BL/6 mice bearing B16-F1 melanoma allograft (n=5 per group). Each mouse received 0.5×10^6 cells by s.c. injection into the flank. 30 μL i.p. daily treatments were started when tumor size reached ˜100 mm^3. […] SHO nude mice bearing an A375 human melanoma xenograft (n=5 per group). Each mouse received 2.5×10^6 cells by s.c. injection into the flank. 30 μL i.p. daily treatments were started when the tumor size reached ˜150 mm^3. Control, vehicle solution only; points, means; bars, SD. DTIC, (5-(3,3,-dimethyl-1-triazenyl)-imidazole-4-carboxamide, dacarbazine.\nAverage body weight of all groups increased slightly throughout the experiment period."}, "A375 [5]": {"system": "A375", "test": "In vitro combination assay (combination index, Chou-Talalay, MTS) on A375", "assay_type": "cell-based, human", "details": "+Vemurafenib; A375 cell line (Tables 3, 4)", "from_the_text": "(§2) Cell proliferation viability was investigated using MTS or SRB assay as described previously. An in vitro study of the combination of vemurafenib and the tubulin inhibitors was designed and conducted using CalcuSyn software (Biosoft, Ferguson, Mo.) with five duplicates of each set of treatment. Drug concentrations were selected based on the IC50 value of each drug tested from a pilot study."}, "in vitro": {"test": "in vitro", "details": "human, liver microsomes, pH 7.4"}, "[6]": {"test": "Pharmacokinetic study in ICR mice", "details": "mouse, IV 10 mg/kg", "method": "All compounds (10 mg/kg) were dissolved in DMSO/PEG300 (1/9) and administered by a single intravenously (i.v.) injection (50 μL) into the tail vein."}, "[7]": {"test": "Pharmacokinetic study in Sprague-Dawley rats", "details": "rat"}, "A375RF21 [8]": {"system": "A375RF21", "test": "In vitro combination assay (combination index) on A375RF21", "assay_type": "cell-based, human", "details": "Treatment + Vemurafenib", "from_the_text": "as §2"}, "A375 [9]": {"system": "A375", "test": "MTS cell proliferation assay on parental A375 cells", "assay_type": "cell-based", "details": "Homo sapiens, A-375, read-out: IC50 value for proliferation inhibition", "method": "Compounds were dissolved in dimethyl sulfoxide (DMSO, Sigma-Aldrich, St. Louis, Mo.) to make stock solution of 10 mM. […] All cell lines were authenticated prior to use for this study. Cells were cultured in DMEM medium (Mediatech, Inc., Manassas, Va.), supplemented by 10% fetal bovine serum (FBS, Atlanta Biologicals, Lawrenceville, Ga.), 1% antibiotic/antimycotic mixture (Sigma-Aldrich, St. Louis, Mo.) and 5 μg/mL bovine insulin (Sigma-Aldrich, St. Louis, Mo.).\nCell proliferation viability was investigated using MTS or SRB assay as described previously. […] Drug concentrations were selected based on the IC50 value of each drug tested from a pilot study."}, "A375RF21 [10]": {"system": "A375RF21", "test": "MTS cell proliferation assay on vemurafenib-resistant A375RF21 cells", "assay_type": "cell-based", "details": "Homo sapiens, read-out: IC50 value for proliferation inhibition", "from_the_text": "as §2"}, "[11]": {"system": "metastasis of melanoma to the lungs", "test": "Melanoma lung metastasis model in mice", "assay_type": "in vivo", "details": "i.p. injection 5 days per week for 2 weeks (FIG. 28)", "from_the_text": "Panel A: Representative photos of lungs with melanoma nodules (black dots, n=8 per group). Treatment was i.p. injection 5 days per week for 2 weeks. Panel B: Number of melanoma nodules on each lung. […] Panel C: Mouse body weight changes during the experiment. Points: means; bars: SD. Control: vehicle solution only."}, "[12]": {"test": "Aqueous solubility (Multiscreen Solubility Filter Plate, LC-MS/MS)", "assay_type": "physicochemical", "details": "phosphate buffered saline, aqueous buffer, kinetic from dmso stock; PBS pH 7.4", "method": "The solubility of drugs was determined by Multiscreen Solubility Filter Plate (Millipore Corporate, Billerica, Mass.) coupled with LC-MS/MS."}, "[13]": {"details": "12da 10 mg/kg, vemurafenib 20 mg/kg, i.p. once per day 5 days per week, after 3 weeks of treatment, n=7"}, "[14]": {"details": "12da 10 mg/kg, vemurafenib 20 mg/kg, after 3 weeks of treatment, n=7"}, "[15]": {"details": "vemurafenib 30 mg/kg, 12da 15 mg/kg, n=5"}}, "note": "Several values for one entry are separate records, joined by “and”; a condition that tells them apart may be missing. Equal entries are not always repeated."}
{"compound": "CCCS(=O)(=O)Nc1ccc(F)c(C(=O)c2c[nH]c3ncc(-c4ccc(Cl)cc4)cc23)c1F", "note": "[Vemurafenib, reference compound]", "values": [{"measurement": "concentration of vemurafenib to produce G0/G1 cell cycle arrest", "setting": "A375RF21 [1]", "result": "≥ 30", "unit": "µM"}, {"measurement": "concentration of vemurafenib to produce G0/G1 cell cycle arrest", "setting": "A375 [2]", "result": "less than 1 μM"}, {"measurement": "counted cell apoptosis or death (percentage sum of Q1, Q2 and Q4)", "setting": "A375RF21 [3]", "result": "11.9±3.5", "unit": "%"}, {"measurement": "TGI (%)", "setting": "A375RF21 xenograft; [13]", "result": "22.65 ± 8.31", "unit": "%"}, {"measurement": "TGI (%)", "setting": "A375RF21 xenograft; 12da 10 mg/kg, vemurafenib 20 mg/kg, i.p. once per day 5 days per week, after 3 weeks of treatment, n=7, listed as vemurafenib", "result": 22.65, "unit": "%"}, {"measurement": "Tumor weight (gram)", "setting": "A375RF21 xenograft; [14]", "result": "2.05 ± 0.14", "unit": "gram"}, {"measurement": "TGI (%)", "setting": "A375RF21 xenograft; [15]", "result": "28.10 ± 4.81", "unit": "%"}, {"measurement": "Tumor weight (gram)", "setting": "A375RF21 xenograft; [15]", "result": "1.05 ± 0.21", "unit": "gram"}, {"measurement": "TGI (%)", "setting": "A375RF21 xenograft; vemurafenib 30 mg/kg, 12da 15 mg/kg, n=5, listed as vemurafenib", "result": 28.10, "unit": "%"}]}
{"compound": "COc1ccc(C(=O)c2nc(-c3cc(OC)c(OC)c(OC)c3)c[nH]2)cc1", "note": "[70y]", "values": [{"measurement": "IC50", "setting": "LNCaP", "result": 708, "unit": "nM"}, {"measurement": "IC50", "setting": "PPC-1", "result": 5680, "unit": "nM"}, {"measurement": "IC50", "setting": "PC-3", "result": 10400, "unit": "nM"}]}
{"compound": "O=C(c1ccc(Br)cc1)c1nc(-c2ccc(Br)cc2)c[nH]1", "note": "[70t]", "values": [{"measurement": "IC50", "setting": "LNCaP", "result": 16900, "unit": "nM"}, {"measurement": "IC50", "setting": "Du 145", "result": 25500, "unit": "nM"}, {"measurement": "IC50", "setting": "PPC-1", "result": 13200, "unit": "nM"}, {"measurement": "IC50", "setting": "PC-3", "result": 18900, "unit": "nM"}]}
{"compound": "CN(C)/N=N/c1[nH]cnc1C(N)=O", "note": "[DTIC, reference compound]", "values": [{"measurement": "melanoma tumor growth inhibition (TGI value)", "setting": "B16-F1 melanoma", "result": 51, "unit": "%"}, {"measurement": "melanoma tumor growth inhibition (TGI value)", "setting": "[4]", "result": 52, "unit": "%"}]}
{"compound": "CC[C@]1(O)C[C@@H]2CN(CCc3c([nH]c4ccccc34)[C@@](C(=O)OC)(c3cc4c(cc3OC)N(C)[C@H]3[C@@](O)(C(=O)OC)[C@H](OC(C)=O)[C@]5(CC)C=CCN6CC[C@]43[C@@H]65)C2)C1", "note": "[Vinblastine]", "values": [{"measurement": "CI value EC75", "setting": "A375 [5]", "result": 0.78}]}
{"compound": "COc1cc(C(=O)c2csc(-c3ccccc3)n2)cc(OC)c1OC", "note": "[drawing 53]", "values": [{"measurement": "half-life at 0.5 μM", "setting": "in vitro", "result": 17, "unit": "min"}, {"measurement": "MousePK_IV10mgk_Cl", "setting": "[6]", "result": 7.8, "unit": "L/h/kg"}, {"measurement": "MousePK_IV10mgk_V", "setting": "[6]", "result": 4.9, "unit": "L/kg"}, {"measurement": "RatPK_IV5mgk_V", "setting": "[7]; IV, 2.5mpk", "result": "4.9 (2.5mpk) L/kg"}, {"measurement": "RatPK_PO10mgk_AUC", "setting": "[7]; PO 10 mg/kg", "result": 37, "unit": "µg·min/mL"}, {"measurement": "RatPK_Bioavailability", "setting": "[7]; oral", "result": 3.3, "unit": "% F"}]}
{"compound": "CC(=O)Nc1cccc(-n2c(=O)n(C3CC3)c(=O)c3c(Nc4ccc(I)cc4F)n(C)c(=O)c(C)c32)c1", "note": "[Trametinib]", "values": [{"measurement": "CI ED75", "setting": "A375RF21 [8]", "result": 0.90}, {"measurement": "CI ED90", "setting": "A375RF21 [8]", "result": 0.90}]}
{"compound": "COc1cc(C(=O)c2c[nH]c(-c3ccc(C)cc3)n2)cc(OC)c1OC", "note": "[12da, (2-(p-tolyl)-1H-imidazol-4-yl)(3,4,5-trimethoxyphenyl)methanone]", "values": [{"measurement": "IC50", "setting": "A375 [9]", "result": "0.0107 ± 0.0015", "unit": "µM"}, {"measurement": "IC50", "setting": "A375RF21 [10]", "result": "0.0136 ± 0.0044", "unit": "µM"}, {"measurement": "counted cell apoptosis or death (percentage sum of Q1, Q2 and Q4)", "setting": "A375RF21 [3]", "result": "11.8±3.0", "unit": "%"}, {"measurement": "TGI (%)", "setting": "A375RF21 xenograft; [13]", "result": "38.12% and 38.12 ± 6.14%"}, {"measurement": "Tumor weight (gram)", "setting": "A375RF21 xenograft; [14]", "result": "1.77 ± 0.11", "unit": "gram"}, {"measurement": "TGI (%)", "setting": "A375RF21 xenograft; [15]", "result": "72.72% and 72.72 ± 8.29%"}, {"measurement": "Tumor weight (gram)", "setting": "A375RF21 xenograft; [15]", "result": "0.51 ± 0.12", "unit": "gram"}, {"measurement": "metastasis of melanoma to the lungs", "setting": "[11]", "result": "inhibition"}]}
{"compound": "COc1cc(C(=O)c2c[nH]c(-c3ccc(Cl)cc3)n2)cc(OC)c1OC", "note": "[12fa, (2-(4-chlorophenyl)-1H-imidazol-4-yl)(3,4,5-trimethoxyphenyl)methanone]", "values": [{"measurement": "solubility at […]", "setting": "[12]", "result": 0.012, "unit": "mg/mL"}, {"measurement": "half-life at 0.5 μM", "setting": "in vitro", "result": 44, "unit": "min"}]}
